# Test results: patent publication US20210386733A1, “LYSINE-SPECIFIC HISTONE DEMETHYLASE INHIBITORS FOR THE TREATMENT OF MYELOPROLIFERATIVE NEOPLASMS” (Imago Biosciences, Inc., priority 2019, published 2021)
# Where a name gives a salt, the structure may show the parent alone.
# Experiments:
# [1] = system: patients with high-risk MF; assay: Phase 1/2A clinical trial of Compound 1 in myelofibrosis (Example 1); type: in vivo, human
# Source text: A multi-center, open-label study evaluating the safety, tolerability, steady-state pharmacokinetics and pharmacodynamics of Compound 1 administered orally once daily in patients with high-risk MF, including primary myelofibrosis (PMF), post-polycythemia vera myelofibrosis (PPV-MF), and post-essential thrombocythemia myelofibrosis (PET-MF) (collectively referred to as ‘MF’) was initiated as a Phase 1/2A study, and was expanded to a Phase 2b study.
# The Phase 1/2A portion of the study assessed: the safety of the original starting dose, 0.25 mg/kg/d; an 85-day duration of treatment with a subsequent washout period of up to 28 days; and, pharmacokinetic and drug concentration measurements. […] With transition to a Phase 2b study, changes supported by the earlier pharmacokinetic and pharmacodynamic studies and safety assessments were implemented, including: an increased starting dose of 0.5 mg/kg/d with larger titration increments; a 168-day (24 week) duration of treatment, with continuous dosing via removal of the washout period; elimination of PK and drug concentration sampling; and, a reduced visit schedule.
# This study was conducted at multiple sites. Up to 50 patients, eighteen years of age or older, with high-risk myelofibrosis were treated. The primary objectives included safety and tolerability, pharmacokinetics (PK; Phase 1/2A only) and spleen volume reduction (SVR). […] Key inclusion criteria included: high- or intermediate-2 risk myelofibrosis; per the Investigator's judgment have failed (refractory or resistant to, inadequately controlled by or intolerant of), or are not a candidate for, available approved therapy including ruxolitinib; platelet count≥100K/μL; and, circulating blasts ≤10%.
# In the Phase 1/2a portion of the study, patients started at the presumed sub-therapeutic dose of 0.25 mg/kg/d. Dose-adjustments were made weekly (the lifespan of a human platelet) with dose-titration, either upward or downward, contingent on platelet values at the time of evaluation. Upward titrations were made in increments of 0.125 or 0.0625 mg/kg/d as shown below. Downward titrations were made in decrements of 50% of the current dose. […] The titration target platelet count expected to be associated with most efficacious therapeutic effect was ≥50,000 to <100,000/μL (50-100×10^9/L). The Phase 1/2a titration and re-challenge rules based on weekly evaluation of platelet counts are noted below in Table 1.
# All but one patient had received one or more prior treatments including ruxolitinib. 48% had PMF, 33% PET-MF, 19% PPV-MF. The median patient age was 65 years (48-89) with 58% males. 48% were classified as high risk (IPSS), the remainder, intermediate risk-2. […] A substantial fraction of the patients had ≥3 mutations. Patients were treated daily for 12 weeks, in accordance with above starting dose and titration rules, followed by a washout period of up to 28 days. Starting platelet counts ranged from about 141 to about 1309 k/μL. Bone marrow biopsies and imaging studies of the abdomen were conducted prior to treatment and during the washout period after 12 weeks of dosing. Grading of myelofibrosis was performed centrally using the 2016 revised World Health Organization classification of myeloid neoplasia (Arber et al., 2016); image reading was also performed centrally. The Myeloproliferative Neoplasm Symptom Assessment Form (MPN-SAF) was self-administered at Baseline and weekly from Day 0 through the End of Study (EoS) Visit. Total symptom scores were derived from this tool. Patients for whom clinical benefit was demonstrable could resume treatment for additional 12-week cycles.
# patients with MF = assay: Safety / adverse events in the clinical studies (31 subjects); type: in vivo
# Source text: Safety. […] Four SAEs attributed to Compound 1 (all Grade 3), including painful splenomegaly, headache, nausea and vomiting, and heart failure. There were 139 AEs of all grades attributed to Compound 1. The most common AEs across the 31 subjects from both of the above studies were thrombocytopenia (11 subjects, 35%), anemia (3 subjects, 10%) and nausea (1, 3%). The most common grade 3/4 AEs attributed to Compound 1 were Anemia (6 subjects, 19%) and neutropenia (3 subjects, 10%).
# Management of Study Toxicities. Adverse event intensity will be evaluated using the National Cancer Institute (NCI) Common Terminology Criteria for Adverse Events (CTCAE) version 4.03, published 14 Jun. 2010.
# [2] = system: somatic mutations in myeloid neoplasm genes (JAK2, CALR, MPL, ASXL1 etc.); assay: Sequencing of somatic mutations, variant allele frequency (VAF) in treated patients (Example 3); type: in vivo, human
# Source text: The following characterize the sequencing protocol: • Samples: Germline (buccal or hair) and “Tumor” (bone marrow, peripheral blood, granulocytes) • Target enrichment: 11,736 hybridization probes in IDT AML panel targeting 261 genes (˜6300 exons) recurrently mutated in myeloid neoplasms • Illumina sequencing: 2×150 bp paired-end sequencing; ˜10 million pairs sequenced per sample • Aiming for sequencing depth >500; Actual: >1000 for >90% of samples • Analysis: Burrows-Wheeler alignment (BWA)=>VARSCAN2 genotyper=>IGV for CALR, etc. • Cutoffs for somatic calls: Sequencing Depth: >20 Mutant (or Variant) Allele Frequency (VAF): >15% • Annotation: All calls submitted to CADD (Combined Annotation Dependent Depletion) at University of Washington • CADD score cutoff >20 identifies the top 1% of the most deleterious mutations
# [3] = 13 patients with biopsies, Day 0 to Day 84 or EoT
# [4] = of the 3 with Hb>10 g/dL at day 0, day 84
# [5] = of the 6 transfusion-independent patients with Hb<10 g/dL
# [6] = of the 9 transfusion-dependent patients, day 84
smiles,measurement,setting,value
"CN1CCN(C(=O)[C@H](CCCN[C@@H]2C[C@H]2c2ccc(F)cc2)NC(=O)c2ccc(-n3ccnn3)cc2)CC1 [Compound 1, N-[(2S)-5-{[(1R, 2S)-2-(4-fluorophenyl)cyclopropyl]amino}-1-(4-methylpiperazin-1-yl)-1-oxopentan-2-yl]-4-(1H-1,2,3-triazol-1-yl)benzamide, bis-tosylate salt]",patients whose bone marrow fibrosis progressed by 1 Grade,[1]; [3],23%
same,patients with a stable bone marrow fibrosis score,[1]; [3],62%
same,patients with bone marrow fibrosis improvement of ≥1 grade,[1]; [3],15%
same,28 days expressed in half-lives of the drug,[1]; at the doses used in this study,> 10 half-lives
same,spleen volume response (SVR) and total symptom score (TSS) compared with Best Available Treatment (BAT),"[1]; day 0 to day 84, BAT as in PERSIST-2 trial, FIG. 3",outperformed the BAT
same,effect on myelofibrosis symptoms,"[1]; evaluable patients N=14, preliminary analysis",profound effect
same,range of total daily dose needed to achieve a platelet count in the target range,[1]; excluding highest and lowest doses,53 to 90 mg
same,mean total daily dose needed to achieve a platelet count in the target range,"[1]; excluding highest and lowest doses (4 mg and 100 mg), target 50,000-75,000 platelets per microliter, S.D. 13.8",78.3 mg
same,mean therapeutic dose per body weight,"[1]; first sixteen patients, assuming an average weight of 75 kg",0.85 mg/kg/day
same,overall efficacy on spleen volumes and symptom scores,[1]; heterogeneous population of MF patients with limited therapeutic options,effective in reducing spleen volumes and substantially improving symptom scores in a majority of patients
same,improvements in symptom scores,"[1]; human, in vivo",generally dose-dependent and rapid
same,"levels of CCL3, IL-6, IL-10, IL-33, IL-28A, IFNβ, IFNα, IFNγ",[1]; in the course of treatment,not elevated in any patient
same,patients with improved Hb (increase of Hb>1 g/dL),[1]; [4],1 patients
same,patients with worsened Hb (decrease of Hb>1 g/dL),[1]; [4],2 patients
same,patients who remained stable (Hb),[1]; [5],3 patients
same,patients who worsened (became transfusion dependent or Hb drop by >1 g/dL),[1]; [5],2 patients
same,patients with improved Hb,[1]; [5],1 patients
same,patients who became transfusion-independent and had improved Hb of >1 g/dL,"[1]; of the 9 transfusion-dependent patients (Hb<10 g/dL), day 84",1 patients
same,patients who maintained stable transfusion frequency,[1]; [6],8 patients
same,patients with increased transfusion frequency,[1]; [6],one
same,lymphocytes counts,[1]; on treatment,unchanged
same,monocyte counts,[1]; on treatment,generally modestly elevated
same,peripheral granulocyte counts,[1]; on treatment,lower
same,platelet counts,[1]; on treatment,reduced platelet counts in all patients
same,mean dose needed to achieve and safely maintain the target platelet count (therapeutic dose),[1]; re-analysis of first sixteen patients,63.8 mg/day
same,platelet counts after cessation of treatment,[1]; reversibility of the anti-thrombopoietic effect,rebounded robustly
same,percent of F-cells (fetal hemoglobin containing erythrocytes),"[1]; six patients, FIG. 10",reduced the percent of F-cells
same,patients with reduction in symptom score (MPN-10),[1]; week 12,79%
same,patients with reduction in symptom score by ≥50%,[1]; week 12,21%
same,inflammatory cytokine S100A9,"[1]; week 12, FIG. 4",generally decreased
same,inflammatory cytokine RANTES,"[1]; week 12, FIG. 5",generally decreased
same,inflammatory cytokine IL-8,"[1]; week 12, FIG. 6",generally decreased
same,circulating growth factor VEGF,"[1]; week 12, FIG. 7",generally decreased
same,circulating growth factor PDGF-BB,"[1]; week 12, FIG. 8",generally decreased
same,patients with a decrease in spleen volume,"[1]; week 12, evaluable N=14",50%
same,patients with a decrease in spleen volume,[1]; week 24,75%
same,patients with a decrease in spleen volume by 35%,[1]; week 24,12.5%
same,patients with a decrease in symptom score,[1]; week 24,89%
same,patients with a decrease in symptom score by ≥50%,[1]; week 24,44%
same,patients with improved scores of fatigue,"[1]; within 14 days, at the lowest two doses",8 of the first 16 patients
same,subjects with grade 3/4 Anemia attributed to Compound 1,patients with MF; 31 subjects,19%
same,subjects with grade 3/4 neutropenia attributed to Compound 1,patients with MF; 31 subjects,10%
same,subjects with anemia (most common AEs),patients with MF; 31 subjects from both studies,10%
same,subjects with nausea (most common AEs),patients with MF; 31 subjects from both studies,3%
same,subjects with thrombocytopenia (most common AEs),patients with MF; 31 subjects from both studies,35%
same,tolerability,patients with MF; MF patients,well tolerated
same,SAEs attributed to Compound 1,"patients with MF; all Grade 3: painful splenomegaly, headache, nausea and vomiting, heart failure",Four
same,AEs of all grades attributed to Compound 1,"patients with MF; human, in vivo",139
same,deaths or dose-limiting toxicities,patients with MF; throughout the course of the study,no deaths or dose-limiting toxicities
same,patients showing a decrease in some or all somatic mutations,[2]; 22 patients,32%
same,patients with increased VAFs,[2]; 22 patients,14%
same,patients with stable VAFs,[2]; 22 patients,55%
same,progression to AML,"[2]; human, in vivo",No progression to AML
same,new mutations,[2]; patients followed up to 550+ days,No new mutations identified
